B1: oncostatin M (protein, UniProt P13725 26-221, looked up)
Oncostatin-M: AAIGSCSKEYRVLLGQLQKQTDLMQDTSRLLDPYIRIQGLDVPKLREHCRERPGAFPSEETLRGLGRRGFLQTLNATLGCVLHRLADLEQRLPKAQDLERSGLNIEDLEKLQMARPNILGLRNNIYCMAQLLDNSDTAEPTKAGRGASQPPTPTPASDAFQRKLEGCRFLHGYHRFMHSVGRVFSKWGESPNRSRR
notes: cytokine oncostatin M used to stimulate cartilage explants

Legend:
Type in all cases: cell-based
[1] = tested on: Bovine articular cartilage explants; test: ^342FFGVG-G2 release into supernatants of bovine articular cartilage explants (AF-28/F78 sandwich assay); settings: FIG. 5; for release of ^342FFGVG-G2 on cytokine stimulation: OSM and TNF-α together, after day 12
Method: Streptavidin plates were incubated for 1 hour, 300 RPM, 20° C. with 100 μl 1500 ng/ml biotinylated AF-28 monoclonal antibody against the epitope ^342FFGVG-G2. Antibody dilutions were made in PBS-BTB buffer. After incubating the plates for 1 hour, plates were washed 5 times with washing buffer (0.15 mol/l NaCl, 0.05% (v/v) Tween 20). Subsequently 50 μl standards (MMP-13 digested purified porcine aggrecan 47-3000 ng/ml or pre-diluted explant supernatants in PBS-BTB were added, and the plates were incubated for 1 hour, 300 RPM, 20° C. After the incubation period, the plates were washed 5 times as described previously, and 500 ng/ml horseradish Peroxidase (POD)-labelled F78 antibody was added. After incubating for 1 hour, 300 RPM, 20° C., the plates were washed 5 times, 100 μl of TMB substrate was added, and the plates were incubated for 15 minutes, 300 RPM, 20° C. in the dark before 150 μl 0.18 M H2SO4 was added. The absorbance was measured immediately after at 450 nm.
(§1) The G2 and the ^342FFGVG-G2 test described above were evaluated using conditioned medium from cartilage explants. Bovine articular cartilage was obtained from heifer stifle joints. Pieces of cartilage (16±4 mg) were placed in 96 well plates and incubated at 37° C. with 5% CO2 and shaking (50 rpm). Serum-free D-MEM medium with or without the cytokines oncostatin M and tumour necrosis factor α (TNFα) or the MMP inhibitor GM6001 was used. As negative control, cartilage was placed in chryo-tubes, frozen in liquid N2, and thawed at 37° C. in water-bath for three repeated freeze-thaw cycles. The explants culture medium was replaced every 3rd day, and supernatants were stored at −20° C. until further analysis.

[2] = tested on: Bovine articular cartilage explants; test: G2 release into supernatants of bovine articular cartilage explants (F78 sandwich assay); settings: FIG. 5; for release of G2 on cytokine stimulation: OSM and TNF-α together, decreases after day 5, background after day 12
Method: A sandwich assay was developed using monoclonal antibodies as described above. Streptavidin plates were incubated for 1 hour, 300 RPM, 20° C. with 100 μl 600 ng/ml biotinylated F78 monoclonal antibody against the G2 domain of aggrecan.
After incubating the plates for 1 hour, plates were washed 5 times with washing buffer (0.15 mol/l NaCl, 0.05% (v/v) Tween 20). Subsequently 100 μl standards (purified bovine aggrecan 0.05 ng/ml-10 ng/ml, or pre-diluted explant supernatants in PBS-BTB were added, and the plates were incubated for 1 hour, 300 RPM, 20° C. After the incubation period, the plates were washed 5 times as described previously, and 500 ng/ml horseradish Peroxidase (POD)-labelled F78 antibody was added. After incubating for 1 hour, 300 RPM, 20° C., the plate was washed 5 times, and 100 μl of TMB substrate was added, and the plate was incubated for 15 minutes, 300 RPM, 20° C. in the dark before 150 μl 0.18 M H2SO4 was added. The absorbance was measured immediately at 450 nm.
as §1

[3] = tested on: Bovine articular cartilage explants; test: CS846 release into supernatants of bovine articular cartilage explants (IBEX CS846 competitive ELISA kit); settings: FIG. 6; for release of CS846 on cytokine stimulation: OSM and TNFα together
Method: as §1
The supernatants evaluated above was also measured for CS846 (IBEX CS846 competitive ELISA kit).

Molecule	release of ^342FFGVG-G2 in the presence of the MMP inhibitor ([1]; explants treated with OSM and TNF-α concomitantly with GM6001)	release of G2 on addition of the MMP inhibitor ([2]; explants treated with OSM and TNF-α plus GM6001)	CS846 release during inhibition of MMP activity ([3]; explants with GM6001)	release of ^342FFGVG-G2 on cytokine stimulation [1]	release of G2 on cytokine stimulation [2]	release of CS846 on cytokine stimulation [3]
CNC(=O)[C@H](Cc1c[nH]c2ccccc12)NC(=O)[C@@H](CC(=O)NO)CC(C)C [GM6001]	completely abrogated	did not inhibit	strong, initial elevation	–	–	–
tumour necrosis factor α [TNF-α]	–	–	–	stimulate an increase	initial elevation	do not stimulate release
B1	–	–	–	stimulate an increase	initial elevation	do not stimulate release

From patent publication US20090291462A1, “Detection or Quantification of Aggrecan and its Fragments” (Immunodiagnostic Systems Nordic A/S, priority 2005, published 2009)
